Values of other authors, collected in patent US9248112B2, “Hemodialysis and peritoneal dialysis solutions comprising one or more creatine compounds” (CREARENE LTD., priority 2009, dated 2016).
Like-named read-outs stand apart in the source and are kept apart here.

Experiments:
[1] = target: T1, creatine transporter protein (CrT) (Homo sapiens, UniProt P48029); details: CrT in the plasma membrane
T1 sequence (P48029 1-635): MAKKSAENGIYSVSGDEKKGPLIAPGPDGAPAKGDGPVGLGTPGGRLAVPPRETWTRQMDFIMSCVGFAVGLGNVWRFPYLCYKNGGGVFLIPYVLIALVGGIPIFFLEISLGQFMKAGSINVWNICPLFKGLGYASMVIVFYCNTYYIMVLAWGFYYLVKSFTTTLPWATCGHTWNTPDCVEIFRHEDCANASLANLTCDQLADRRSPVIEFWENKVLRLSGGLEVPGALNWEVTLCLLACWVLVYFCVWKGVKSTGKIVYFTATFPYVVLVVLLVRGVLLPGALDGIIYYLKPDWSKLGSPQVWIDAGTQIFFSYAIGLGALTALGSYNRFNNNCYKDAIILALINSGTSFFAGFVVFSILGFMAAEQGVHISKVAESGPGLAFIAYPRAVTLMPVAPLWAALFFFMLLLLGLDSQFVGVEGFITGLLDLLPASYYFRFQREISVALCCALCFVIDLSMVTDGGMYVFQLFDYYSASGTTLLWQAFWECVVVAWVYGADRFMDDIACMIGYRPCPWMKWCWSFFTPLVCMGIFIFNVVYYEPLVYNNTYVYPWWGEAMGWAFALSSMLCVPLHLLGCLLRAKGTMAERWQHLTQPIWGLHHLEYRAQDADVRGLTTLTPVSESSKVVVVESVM

[2] = peritoneal dialysis solution, 37° C.
[3] = system: homocysteine
[4] = system: homocysteine; details: animal model
[5] = adults, clinical studies
[6] = not given; remark: listed apart in the source
[7] = not given; remark: listed apart in the source

Row | SMILES | Km [1] | concentration near the saturation limit of creatine [2] | homocystein levels ([3]; 2 g/day, additionally vitamin B supplemented subjects) | homocystein levels ([3]; humans, approximately 5 g Cr/day) | serum levels of homocysteine [4] | serum creatine concentration (after a single oral dose of 5-20 g of creatine) | time to reach maximal levels in the blood stream (ingested (oral) creatine) | safe daily intake [5] | stability in acidic aqueous solutions ([6]; acidic aqueous solutions, temperatures over 60° C.) | storage stability in solution ([6]; neutral pH, cooled) | decrease in muscle cramps ([7]; 12 g orally 5 minutes before hemodialysis, four week treatment) | serum creatinin after treatment ([7]; after four week treatment period, 12 g orally before hemodialysis) | serum creatinin before treatment ([7]; start of four week treatment period)
1 | CN(CC(=O)O)C(=N)N [creatine] | 25 to 30 µM | 24-25 g per liter | no such effects were seen | reduction of homocystein levels | reduce serum levels | 1-2 mM/l | two to four | up to 20 g daily |  |  |  |  | 
2 | CN(CC(=O)O)C(=N)N.O [creatine monohydrate] |  |  |  |  |  |  |  |  | some instability | can be stored for thirty days without losses | 60% | 12.4 mg/dL | 10.7 mg/dL
